Here are results for 28 molecules from US20260297070A1, “CYCLIC [COMPOUND LEFT OUT] WRN INHIBITORS” (Nimbus Wadjet, Inc., priority 2023, published 2026).

A value given as a limit tells only on which side of the number the result lay.

T1 sequence (Q14191 with tags, fused parts or gaps L1074F limits assumed): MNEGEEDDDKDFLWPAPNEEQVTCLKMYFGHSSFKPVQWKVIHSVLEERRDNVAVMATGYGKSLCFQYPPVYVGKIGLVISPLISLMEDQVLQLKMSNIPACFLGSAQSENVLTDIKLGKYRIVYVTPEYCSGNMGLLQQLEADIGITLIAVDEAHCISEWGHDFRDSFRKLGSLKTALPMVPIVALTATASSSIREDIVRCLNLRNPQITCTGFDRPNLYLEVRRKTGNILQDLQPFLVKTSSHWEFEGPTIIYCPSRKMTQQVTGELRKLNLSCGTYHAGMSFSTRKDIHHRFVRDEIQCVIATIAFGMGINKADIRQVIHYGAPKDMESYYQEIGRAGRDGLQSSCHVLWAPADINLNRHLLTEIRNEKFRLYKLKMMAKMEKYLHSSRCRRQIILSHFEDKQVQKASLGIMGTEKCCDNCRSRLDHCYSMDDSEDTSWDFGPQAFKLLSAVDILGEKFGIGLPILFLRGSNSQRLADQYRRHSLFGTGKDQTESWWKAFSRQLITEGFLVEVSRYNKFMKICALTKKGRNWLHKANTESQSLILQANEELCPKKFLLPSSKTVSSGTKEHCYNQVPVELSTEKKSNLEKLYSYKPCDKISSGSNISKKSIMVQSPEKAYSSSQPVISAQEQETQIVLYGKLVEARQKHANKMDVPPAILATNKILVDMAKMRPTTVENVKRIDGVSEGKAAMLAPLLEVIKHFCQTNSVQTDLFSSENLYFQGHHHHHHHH

One assay addresses T1, human Werner helicase (WRN-BV08, Uniprot Q14191, amino acids 517-1235 with L1074F point mutation) (Homo sapiens, UniProt Q14191, L1074F).
T1 construct: Uniprot Q14191, amino acids 517-1235 with L1074F point mutation; TEV-cleavable 8×His (C, cleaved yes); made in house; host or cells: Sf9 insect cells (baculovirus)
The assay can be described thus: WRN (BV08) ADP-Glo Assay. The format is biochemical. The note with it: 0.15 nM WRN, 5 μM ATP, 0.1 nM DNA duplex, 15 min preincubation, 60 min at 25° C., pH 7.5, 1% DMSO; read-out: ADP-Glo_hWRN_IC50. Put shortly:
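ADP produced by WRN helicase fragment 517-1235 (L1074F, baculovirus/Sf9, untagged) read by ADP-Glo luminescence after 60 min at 25 °C with 5 μM ATP and 0.1 nM duplex DNA, following 15 min compound preincubation. Final enzyme 0.15 nM in Bicine pH 7.5 buffer, 1% DMSO; 20 μM NSC-617145 defined full inhibition.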
On the technique in general: ADP-Glo first removes unused ATP, then detects ADP through luciferase.
Regarding `C[Si](C)(C)c1ccc(CC(=O)N(Cc2ccncc2)C2C=CS(=O)(=O)C2)cc1` (stereo not shown) [I-587, N-(1,1-dioxo-2,3-dihydro-1lambda6-thiophen-3-yl)-N-[(pyridin-4-yl)methyl]-2-[4-(trimethylsilyl)phenyl]acetamide], the IC50 lay in the range of 10 to 50 µM.
Still for that read-out and setting: the value for `COc1cc(CN(C(=O)Cc2ccc(OC3CC3)cc2)C2C=CS(=O)(=O)C2)ccn1` (stereo not shown) [I-588, 2-(4-cyclopropoxyphenyl)-N-(1,1-dioxo-2,3-dihydro-1lambda6-thiophen-3-yl)-N-[(2-methoxypyridin-4-yl)methyl]acetamide] was 10 to 50 µM; that for `O=C(Cn1cc2cc(C(F)(F)F)ccc2n1)N(Cc1ccncc1)C1C=CS(=O)(=O)C1` (stereo not shown) [I-589, N-(1,1-dioxo-2,3-dihydro-1lambda6-thiophen-3-yl)-N-[(pyridin-4-yl)methyl]-2-[5-(trifluoromethyl)-2H-indazol-2-yl]acetamide] was 0.5 to 5 µM; that for `O=C(Cn1ncc2cc(C(F)(F)F)ccc21)N(Cc1ccncc1)C1C=CS(=O)(=O)C1` (stereo not shown) [I-590, N-(1,1-dioxo-2,3-dihydro-1lambda6-thiophen-3-yl)-N-[(pyridin-4-yl)methyl]-2-[5-(trifluoromethyl)-1H-indazol-1-yl]acetamide] was 5 to 10 µM.
The same measure, in the same setting: next, `COc1cc(CN(C(=O)Cc2ccc(C3CC(F)C3)cc2F)[C@@H]2C=CS(=O)(=O)C2)ccn1` (stereo partly drawn) [I-591, N-[(3R)-1,1-dioxo-2,3-dihydro-1lambda6-thiophen-3-yl]-2-[2-fluoro-4-(3-fluorocyclobutyl)phenyl]-N-[(2-methoxypyridin-4-yl)methyl]acetamide]: 0.5 to 5 µM; `O=C(Cn1cc2ccc(C(F)F)cc2n1)N(Cc1ccncc1)C1C=CS(=O)(=O)C1` (stereo not shown) [I-592, 2-[6-(difluoromethyl)-2H-indazol-2-yl]-N-(1,1-dioxo-2,3-dihydro-1lambda6-thiophen-3-yl)-N-[(pyridin-4-yl)methyl]acetamide]: 10 to 50 µM; `O=C(Cn1ncc2ccc(C(F)F)cc21)N(Cc1ccncc1)C1C=CS(=O)(=O)C1` (stereo not shown) [I-593, 2-[6-(difluoromethyl)-1H-indazol-1-yl]-N-(1,1-dioxo-2,3-dihydro-1lambda6-thiophen-3-yl)-N-[(pyridin-4-yl)methyl]acetamide]: more than 50 µM.
Consider `CN(C)C(=O)C(C(=O)N(Cc1ccnc(C(C)(C)O)c1)C1C=CS(=O)(=O)C1)n1cc(-c2ccccc2)cn1` (stereo not shown) [I-594, N′-(1,1-dioxo-2,3-dihydro-1lambda6-thiophen-3-yl)-N′-{[2-(2-hydroxypropan-2-yl)pyridin-4-yl]methyl}-N,N-dimethyl-2-(4-phenyl-1H-pyrazol-1-yl)propanediamide], for which the IC50 was 0.5 to 5 µM.
In the case of `COc1cc(CN(C(=O)Cn2ncc(-c3ccccc3)c2C)[C@@H]2C=CS(=O)(=O)C2)ccn1` [I-595, N-[(3R)-1,1-dioxo-2,3-dihydro-1lambda6-thiophen-3-yl]-N-[(2-methoxypyridin-4-yl)methyl]-2-(5-methyl-4-phenyl-1H-pyrazol-1-yl)acetamide], the IC50 was 0.5 to 5 µM.
For `COc1cc(CN(C(=O)Cn2cc(-c3ccccc3)c(C)n2)[C@@H]2C=CS(=O)(=O)C2)ccn1` [I-596, N-[(3R)-1,1-dioxo-2,3-dihydro-1lambda6-thiophen-3-yl]-N-[(2-methoxypyridin-4-yl)methyl]-2-(3-methyl-4-phenyl-1H-pyrazol-1-yl)acetamide], the IC50 is 10 to 50 µM.
The same measure, in the same setting: the value for `COc1cc(CN(C(=O)Cn2cnc(-c3ccc(F)cc3)c2)[C@@H]2C=CS(=O)(=O)C2)ccn1` [I-597, N-[(3R)-1,1-dioxo-2,3-dihydro-1lambda6-thiophen-3-yl]-2-[4-(4-fluorophenyl)-1H-imidazol-1-yl]-N-[(2-methoxypyridin-4-yl)methyl]acetamide] was more than 50 µM; that for `COc1cc(CN(C(=O)Cn2cc(-c3ccc(F)c(F)c3)cn2)[C@@H]2C=CS(=O)(=O)C2)ccn1` [I-598, 2-[4-(3,4-difluorophenyl)-1H-pyrazol-1-yl]-N-[(3R)-1,1-dioxo-2,3-dihydro-1lambda6-thiophen-3-yl]-N-[(2-methoxypyridin-4-yl)methyl]acetamide] was less than 0.5 µM.
Regarding `O=C(Cn1cc(-c2ccc(F)c(F)c2)cn1)N(Cc1nc(C2CC2)cs1)C1C=CS(=O)(=O)C1` (stereo not shown) [I-599, N-[(4-cyclopropyl-1,3-thiazol-2-yl)methyl]-2-[4-(3,4-difluorophenyl)-1H-pyrazol-1-yl]-N-(1,1-dioxo-2,3-dihydro-1lambda6-thiophen-3-yl)acetamide], the IC50 is less than 0.5 µM.
For `COc1cc(CN(C(=O)Cc2ccc(S(F)(F)(F)(F)F)cc2)C2C=CS(=O)(=O)C2)ncn1` (stereo not shown) [I-600, N-(1,1-dioxo-2,3-dihydro-1lambda6-thiophen-3-yl)-N-[(6-methoxypyrimidin-4-yl)methyl]-2-[4-(pentafluoro-lambda6-sulfanyl)phenyl]acetamide], the IC50 was 0.5 to 5 µM.
Regarding `COc1cc(CN(C(=O)C(OCCO)c2ccc(-c3ccc(F)c(F)c3)cc2F)[C@@H]2C=CS(=O)(=O)C2)ccn1` (stereo partly drawn) [I-603, N-[(3R)-1,1-dioxo-2,3-dihydro-1lambda6-thiophen-3-yl]-2-(2-hydroxyethoxy)-N-[(2-methoxypyridin-4-yl)methyl]-2-{3,3′,4′-trifluoro-[1,1′-biphenyl]-4-yl}acetamide], the IC50 was less than 0.5 µM.
Still for that read-out and setting: the value for `O=C(Cc1ccc(S(F)(F)(F)(F)F)cc1)N(Cc1ccnc(OC(F)F)c1)C1C=CS(=O)(=O)C1` (stereo not shown) [I-605, N-{[2-(difluoromethoxy)pyridin-4-yl]methyl}-N-(1,1-dioxo-2,3-dihydro-1lambda6-thiophen-3-yl)-2-[4-(pentafluoro-lambda6-sulfanyl)phenyl]acetamide] was 0.5 to 5 µM; that for `O=C(Cc1ccc(S(F)(F)(F)(F)F)cc1)N(CC1CC1)C1C=CS(=O)(=O)C1` (stereo not shown) [I-608, N-(cyclopropylmethyl)-N-(1,1-dioxo-2,3-dihydro-1lambda6-thiophen-3-yl)-2-[4-(pentafluoro-lambda6-sulfanyl)phenyl]acetamide] was 10 to 50 µM; that for `Cn1nc(-c2ccccc2)cc1CC(=O)N(Cc1ccncc1)C1C=CS(=O)(=O)C1` (stereo not shown) [I-609, N-(1,1-dioxo-2,3-dihydro-1lambda6-thiophen-3-yl)-2-(1-methyl-3-phenyl-1H-pyrazol-5-yl)-N-[(pyridin-4-yl)methyl]acetamide] was more than 50 µM.
Regarding `Cc1nc2cc(CC(=O)N(Cc3ccncc3)C3C=CS(=O)(=O)C3)ccc2o1` (stereo not shown) [I-610, N-(1,1-dioxo-2,3-dihydro-1lambda6-thiophen-3-yl)-2-(2-methyl-1,3-benzoxazol-5-yl)-N-[(pyridin-4-yl)methyl]acetamide], the IC50 was more than 50 µM.
As for `O=C([C@H]1C[C@@H](c2ccccc2)C1)N(Cc1ccncc1)C1C=CS(=O)(=O)C1` (stereo partly shown) [I-611, (1s,3s)-N-(1,1-dioxo-2,3-dihydro-1lambda6-thiophen-3-yl)-3-phenyl-N-[(pyridin-4-yl)methyl]cyclobutane-1-carboxamide], the IC50 was more than 50 µM.
`Cc1nc(CN(C(=O)Cc2ccc(S(F)(F)(F)(F)F)cc2)C2C=CS(=O)(=O)C2)sc1C` (stereo not shown) [I-612, N-[(4,5-dimethyl-1,3-thiazol-2-yl)methyl]-N-(1,1-dioxo-2,3-dihydro-1lambda6-thiophen-3-yl)-2-[4-(pentafluoro-lambda6-sulfanyl)phenyl]acetamide]: the IC50 is less than 0.5 µM.
For `O=C(CC1COc2ccccc2C1)N(Cc1ccncc1)C1C=CS(=O)(=O)C1` (stereo not shown) [I-613, 2-(3,4-dihydro-2H-1-benzopyran-3-yl)-N-(1,1-dioxo-2,3-dihydro-1lambda6-thiophen-3-yl)-N-[(pyridin-4-yl)methyl]acetamide], the IC50 was more than 50 µM.
For the molecule `O=C(C1CC(c2ccc(F)cc2)C1)N(Cc1ccncc1)C1C=CS(=O)(=O)C1` (stereo not shown) [I-614, N-(1,1-dioxo-2,3-dihydro-1lambda6-thiophen-3-yl)-3-(4-fluorophenyl)-N-[(pyridin-4-yl)methyl]cyclobutane-1-carboxamide], the IC50 is more than 50 µM.
`O=C(Cn1nc(C(F)F)c2c1CCCC2)N(Cc1ccncc1)C1C=CS(=O)(=O)C1` (stereo not shown) [I-616, 2-[3-(difluoromethyl)-4,5,6,7-tetrahydro-1H-indazol-1-yl]-N-(1,1-dioxo-2,3-dihydro-1lambda6-thiophen-3-yl)-N-[(pyridin-4-yl)methyl]acetamide]: the IC50 is more than 50 µM.
With `O=C([C@H]1[C@@H]2CC(F)(F)C[C@@H]21)N(Cc1ccncc1)C1C=CS(=O)(=O)C1` (stereo partly drawn) [I-617, (1R,5S,6R)-N-(1,1-dioxo-2,3-dihydro-1lambda6-thiophen-3-yl)-3,3-difluoro-N-[(pyridin-4-yl)methyl]bicyclo[3.1.0]hexane-6-carboxamide], the IC50 was more than 50 µM.
`O=C(C1C2CN(CC(F)(F)F)CC21)N(Cc1ccncc1)C1C=CS(=O)(=O)C1` (stereo not shown) [I-618, N-(1,1-dioxo-2,3-dihydro-1lambda6-thiophen-3-yl)-N-[(pyridin-4-yl)methyl]-3-(2,2,2-trifluoroethyl)-3-azabicyclo[3.1.0]hexane-6-carboxamide]: the IC50 was more than 50 µM.
Consider `O=C(C1C2CCC1C2)N(Cc1ccncc1)C1C=CS(=O)(=O)C1` (stereo not shown) [I-619, N-(1,1-dioxo-2,3-dihydro-1lambda6-thiophen-3-yl)-N-[(pyridin-4-yl)methyl]bicyclo[2.1.1]hexane-5-carboxamide], for which the IC50 was more than 50 µM.

The assay is the same for the next values; noted with them: ADP-Glo_hWRN_IC50, 0.15 nM WRN, 5 μM ATP, 0.1 nM DNA duplex, 15 min preincubation, 60 min at 25° C., pH 7.5, 1% DMSO.
The molecule `O=C(c1cc(-c2ccc(F)cc2)ns1)N(Cc1ccncc1)C1C=CS(=O)(=O)C1` (stereo not shown) [I-615, N-(1,1-dioxo-2,3-dihydro-1lambda6-thiophen-3-yl)-3-(4-fluorophenyl)-N-[(pyridin-4-yl)methyl]-1,2-thiazole-5-carboxamide] returned an IC50 of more than 50 µM.
